Reference: patent publication US20130029970A1 (priority 2009, published 2013)
Read-outs that look alike come from different tables or passages of the source.

Legend:
human CB2 receptors = target: T1, human CB2 receptors (Homo sapiens, UniProt P34972); assay: cAMP assay in HEK-293 cells, hCB2 agonist; assay type: cell-based
T1 construct: (cDNA clone) CNR0200000
Summary of the method: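 Stable hCB2 HEK-293 cells in HBSS/10 mM HEPES/0.1% fatty-acid-free BSA incubated 30 min at 37° C with compound; forskolin 90 uM in 3× compound mix.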

human CB2 (hCB2) = target: T2, human CB2 (hCB2) (Homo sapiens, UniProt P34972); assay: 35S GTPγS binding assay, hCB2 agonist; assay type: biochemical
T2 construct: (cDNA clone) CNR0200000
T2 sequence (P34972 whole entry): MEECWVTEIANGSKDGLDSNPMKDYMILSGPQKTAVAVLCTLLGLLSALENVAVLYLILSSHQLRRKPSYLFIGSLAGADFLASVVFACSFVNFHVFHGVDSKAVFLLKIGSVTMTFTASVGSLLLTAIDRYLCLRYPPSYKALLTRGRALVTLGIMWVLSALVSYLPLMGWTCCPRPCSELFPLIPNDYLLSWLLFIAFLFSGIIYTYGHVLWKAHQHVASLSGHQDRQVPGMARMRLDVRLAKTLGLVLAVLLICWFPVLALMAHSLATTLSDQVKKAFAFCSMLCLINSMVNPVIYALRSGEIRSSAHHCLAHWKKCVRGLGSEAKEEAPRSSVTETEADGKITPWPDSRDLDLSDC
Summary of the method: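 Agonist-stimulated [35S]GTPγS (0.1 nM) binding measured by scintillation proximity after 90 min at room temperature. Reaction buffer: 50 mM HEPES pH 7.4, 100 mM NaCl, 5 mM MgCl2, 0.001% saponin plus 20 uM GDP. Membranes (5 μg) came from transfected cells expressing hCB2 cDNA (pcDNA3.1+ vector).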

human CB1 (hCB1) = target: T3, human CB1 (hCB1) (Homo sapiens, UniProt P21554); assay: 35S GTPγS binding assay, hCB1 agonist; assay type: biochemical; conditions: GTPγS agonist, HEK-293 membranes; read-out: hCB1 EC50 (GTPyS ag)
T3 construct: (cDNA clone) CNR01L000
T3 sequence (P21554 whole entry): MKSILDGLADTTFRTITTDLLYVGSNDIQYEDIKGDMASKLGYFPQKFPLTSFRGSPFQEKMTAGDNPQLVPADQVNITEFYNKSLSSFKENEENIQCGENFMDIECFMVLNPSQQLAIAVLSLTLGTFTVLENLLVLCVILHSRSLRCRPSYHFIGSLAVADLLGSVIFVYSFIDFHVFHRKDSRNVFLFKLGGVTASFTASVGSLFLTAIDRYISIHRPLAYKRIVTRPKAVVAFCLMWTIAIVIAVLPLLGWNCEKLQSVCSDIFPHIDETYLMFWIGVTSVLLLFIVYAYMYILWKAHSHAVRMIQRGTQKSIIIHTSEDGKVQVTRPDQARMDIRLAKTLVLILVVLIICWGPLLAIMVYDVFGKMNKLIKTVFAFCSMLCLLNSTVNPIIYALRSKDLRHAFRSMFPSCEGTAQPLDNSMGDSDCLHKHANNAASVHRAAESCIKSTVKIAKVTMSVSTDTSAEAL
Description: cDNA expression clones for human CB1 (hCB1, Genbank Accession No. AY225225) and human CB2 (hCB2, Genbank Accession No. AY242132) expressed in vector pcDNA3.1+ were purchased from UMR cDNA Resource Center, Rolla, Mo. (Clone ID CNR01L000 for hCB1; CNR0200000 for hCB2).
Stable, HEK-293-derived cell lines that recombinantly express hCBI or hCB2 were established. In brief, the clone hCB1 (CNR IL) or hCB2 (CNR2) was transfected into human embryonic kidney cells (HEK-293) using Lipofectamine 2000 (Gibco, Cat#11668-019) according to the manufacturer's protocol. Transfected clones were isolated by single colony purification and clones were screened for receptor expression using a whole cell, ^3H—CP 55,940 radioligand binding assay. HEK-293 stable cells were maintained in Dulbecco's modified Eagles medium (DMEM) containing 10% fetal bovine serum, 2 mM L-glutamine and 0.5 mg/mL G-418.
Membranes were isolated from transfected cells as follows. Monolayers of cultured cells were washed twice with phosphate-buffered saline (PBS). Cells were scraped into 20 mM HEPES, pH 7.4, 10 mM EDTA containing complete cocktail protease inhibitors (Roche, Catalog #11 697 498 001) and were homogenized by an electric-powered mechanical probe homogenizer (Omni GLH; probe G7-195S) for 40 seconds at 7000 rpm. Homogenates were centrifuged 10 minutes at 1000×g at 4° C. The supernatant was collected and was centrifuged for 1 hour at 40,000×g. The supernatant was then decanted and the resulting pellet was re-suspended in 20 mM HEPES, pH 7.4, 5 mM MgCl2, 1 mM EDTA, 10% sucrose with complete cocktail protease inhibitors. Protein concentration of membrane suspensions were measured by Bradford Protein Assay using bovine serum albumin as the standard (BioRad catalog #500-0006). Protein concentrations of membrane suspensions were adjusted with the final buffer in the range of 5 to 10 mg/mL and were stored at −80° C. until further use.
Functional assays which monitor G-protein coupled receptor or downstream cellular responses can be used to characterize potential CB1 receptor and/or CB2 receptor agonist or antagonist activities. Direct activation (or inhibition of activation) can be monitored using a GTPγS assay (membrane-based assay) or cAMP assay (whole cell-based assay).
^35S GTPγS binding assays were performed by incubating recombinant cell membranes prepared above (5 μg) in the presence of scintillation proximity assay beads (SPA beads, Catalog #RPNQ0252 GE Healthcare, Buckinghamshire, England) in GTPγS binding buffer [50 mM HEPES (pH 7.4), 100 mM NaCl, 5 mM MgCl2, 0.001% saponin (Sigma catalog #S4521)] supplemented with 20 uM GDP (Sigma catalog #G7127) in the presence or absence of test compound. The reaction was carried out in 96-well microplates with 0.1 nM [^35S]GTPγS (specific activity=1250 Ci/mmol; Perkin Elmer catalog #NEG030X250UC) in a final volume of 100 uL. After a 90 min room temperature incubation, the reaction was analyzed using a scintillation counter (Perkin Elmer Microbeta instrument). Binding data were analyzed using GraphPad Prism.

[1] = target: T4, recombinant human cannabinoid receptor CB1 (Homo sapiens, UniProt P21554); assay: Cannabinoid receptor radioligand binding assay, [3H]-CP 55,940 displacement, hCB1
T4 construct: (cDNA clone) CNR01L000
T4 sequence (P21554 whole entry): as above
Summary of the method: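 Displacement of 0.5 nM [3H]-CP 55,940 (1 μM unlabeled CP 55,940 for nonspecific) measured by filtration and scintillation counting. Binding ran 90 min at room temperature in pH 7.5 Tris buffer with 0.1% fatty-acid-free BSA, using recombinant hCB1 HEK-293 membranes at 2-10 μg protein.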

human CB1 receptors = target: T5, human CB1 receptors (Homo sapiens, UniProt P21554); assay: cAMP assay in HEK-293 cells, hCB1 agonist; assay type: cell-based; conditions: inhibition of forskolin-stimulated cAMP, HEK-293 cells
T5 construct: (cDNA clone) CNR01L000
T5 sequence (P21554 whole entry): as above
Summary of the method: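 Agonist EC50 taken as concentration giving half inhibition of forskolin-driven cAMP, normalized to forskolin maximum, from sigmoidal curves. Whole HEK-293 cells stably expressing hCB1, in HEPES/BSA-containing HBSS, exposed 30 min at 37° C. to compound with forskolin (90 uM in 3× dilution); cAMP read after lysis.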

[2] = target: T6, recombinant human cannabinoid receptor CB2 (Homo sapiens, UniProt P34972); assay: Cannabinoid receptor radioligand binding assay, [3H]-CP 55,940 displacement, hCB2
T6 construct: (cDNA clone) CNR0200000
T6 sequence (P34972 whole entry): as the sequence (P34972 whole entry) above
Summary of the method: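 Receptor source: membrane pellet (40,000×g) from transfected cells, stored in HEPES pH 7.4/MgCl2/EDTA/sucrose buffer.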

[3] = test system: PBQ-induced writhing in the mouse; assay: Phenylbenzoquinone-induced (PBQ) writhing model
[4] = GTPγS agonist, HEK-293 membranes, read-out: hCB2 EC50 (GTPyS ag)

T1 sequence (P34972 whole entry): as above

| SMILES | EC50 (human CB1 (hCB1)) [nM] | IC50 [1] [nM] | EC50 (human CB2 receptors) [nM] | EC50 (human CB2 (hCB2)) [nM] | Number of Writhes ([3]; Dose 30, IP) | also measured |
| --- | --- | --- | --- | --- | --- | --- |
| COc1ccc(C(=O)c2cc3cc(C)n(CCN4CCC(F)(F)CC4)c3s2)cn1 [Compound 152, (6-(2-(4,4-difluoropiperidin-1-yl)ethyl)-5-methyl-6H-thieno[2,3-b]pyrrol-2-yl)(6-methoxypyridin-3-yl)methanone] | 1000 to 10000 | < 100 | – | – | – | EC50 (human CB2 receptors; inhibition of forskolin-stimulated cAMP, HEK-293 cells, read-out: hCB2 EC50 (cAMP ag)): < 100 nM; EC50 (human CB2 (hCB2); [4]): < 100 nM |
| COc1ccc(C(=O)c2cc3cc(C)n(CCCNS(=O)(=O)C(F)(F)F)c3s2)cc1 [Compound 154, 1,1,1-trifluoro-N-(3-(2-(4-methoxybenzoyl)-5-methyl-6H-thieno[2,3-b]pyrrol-6-yl)propyl)methanesulfonamide] | > 10000 | 158 | 100 to 1000 | 1000 to 10000 | – | – |
| COc1ccc(C(=O)c2cc3cc(C)n(CCN4CC5CC4CO5)c3s2)cn1 (centres unmarked) [Compound 169, (6-(2-(2-oxa-5-azabicyclo[2.2.1]heptan-5-yl)ethyl)-5-methyl-6H-thieno[2,3-b]pyrrol-2-yl)(6-methoxypyridin-3-yl)methanone] | > 10000 | 100 to 1000 | – | – | – | hCB1 EC50 (cAMP ag, nM) (human CB1 receptors): NS (NS means “Not Significant,” which means less than 30% agonist activity when compared to the positive control.); EC50 (human CB2 (hCB2); [4]): 1000 to 10000 nM |
| COc1ccc(C(=O)c2cc3cc(C)n(CC4CCCCO4)c3s2)cn1 (centres unmarked) [Compound 173, (6-methoxypyridin-3-yl)(5-methyl-6-((tetrahydro-2H-pyran-2-yl)methyl)-6H-thieno[2,3-b]pyrrol-2-yl)methanone] | 1000 to 10000 | < 100 | < 100 | 100 to 1000 | – | – |
| COc1ccc(C(=O)c2cc3cc(C)n(CC4CCSCC4)c3s2)cn1 [Compound 175, (6-methoxypyridin-3-yl)(5-methyl-6-((tetrahydro-2H-thiopyran-4-yl)methyl)-6H-thieno[2,3-b]pyrrol-2-yl)methanone] | 100 to 1000 | < 100 | < 100 | < 100 | – | IC50 [2]: 1000 to 10000 nM |
| COc1cc(F)c(C(=O)c2cc3cc(C)n(CC4CCOCC4)c3s2)c(F)c1 [Compound 180, (2,6-difluoro-4-methoxyphenyl)(5-methyl-6-((tetrahydro-2H-pyran-4-yl)methyl)-6H-thieno[2,3-b]pyrrol-2-yl)methanone] | 1000 to 10000 | 100 to 1000 | < 100 | < 100 | – | – |
| Cc1cc2cc(C(=O)c3cccc(Cl)c3Cl)sc2n1CCN1CCOCC1 [Compound I-1] | – | – | – | – | 0.4 ± 0.31 | Number of Writhes ([3]; Dose 30, PO): 7.5 ± 1.91 |
| Cc1cc2cc(C(=O)c3ccc(Cl)cc3)sc2n1CCN1CCOCC1 [Compound I-6] | – | – | – | – | – | Number of Writhes ([3]; Dose 30, PO): 3.7 ± 0.7 |
| Cc1cc2cc(C(=O)c3ccc(Cl)cc3Cl)sc2n1CCN1CCOCC1 [Compound I-10] | – | – | – | – | – | Number of Writhes ([3]; Dose 30, PO): 3.7 ± 0.7 |
| Cc1cc2cc(C(=O)c3ccccn3)sc2n1CCN1CCOCC1 [Compound I-16] | – | – | – | – | 10.0 ± 2.76 | – |
| CCS(=O)(=O)n1c(C)cc2cc(C(=O)c3cccc(Cl)c3Cl)sc21 [Compound I-25] | – | – | – | – | 5.9 ± 2.46 | – |
| Cc1cc2cc(C(=O)c3ccncn3)sc2n1CCN1CCOCC1 [Compound I-34] | – | – | – | – | 3.4 ± 0.97 | – |
